The values that follow come from ChEMBL document CHEMBL1123017, “Synthesis and antifertility activity of zoapatanol analogues” (1985).

A value given as a limit tells only on which side of the number the result lay.

What all share (type): functional
Assay [1] relates to Cavia porcellus. In words: Compound was evaluated for contragestational activity in guinea pig after intraperitoneal administration; Range is 25-50.
Assay [2] has as its system Cavia porcellus. In words: Contragestational activity in guinea pig after intraperitoneal administration; Not Significant.
For assay [3], the system named is Cavia porcellus. In words: Compound was evaluated for contragestational activity in guinea pig after intraperitoneal administration; Range is 50-100.
The subject of assay [4] is Cavia porcellus. Put plainly: Compound was evaluated for contragestational activity in guinea pig after intraperitoneal administration; Range is 10-25.
Assay [5] has as its system Cavia porcellus. In words: Compound was evaluated for contragestational activity in guinea pig after intraperitoneal administration.

In turn, `CC(C)=CCC(=O)C(C)CCC[C@]1(C)OC[C@]2(C(=O)O)CC[C@H]1O2` (stereo partly specified) yielded a Contragestational activity in the assay on Cavia porcellus [1] of 25 mg/kg.
In turn, `CC(CCC[C@]1(C)OC[C@]2(CC(=O)O)CC[C@H]1O2)C(=O)O` (stereo partly specified) yielded a Contragestational activity with Cavia porcellus [2] of over 100 mg/kg.
Same read-out and setting: then `COC(=O)/C=C1\CC[C@@H](OC(C)=O)[C@](C)(CCCC(C)C(O)CC=C(C)C)OC1` (stereo partly specified), with over 100 mg/kg.
The compound `C/C(=C\C(C)(O)C(C)CCC[C@]1(C)OC/C(=C/CO)CC[C@H]1O)C(C)C` (stereo partly specified) showed a Contragestational activity in the assay with Cavia porcellus [2] of over 100 mg/kg.
On the same count and under the same terms, then `CC(=O)OC/C=C1\CCC(=O)[C@](C)(CCCC(C)C(=O)CC=C(C)C)OC1` (stereo partly specified), with over 100 mg/kg.
`CC(=O)O[C@@H]1CC/C(=C\CO)CO[C@@]1(C)CCCC(C)C(=O)CC=C(C)C` (stereo partly specified): the Contragestational activity in the assay with Cavia porcellus [1] was 25 mg/kg.
With `CC(=O)OC/C=C1\CC[C@@H](OC(C)=O)[C@](C)(CCCC(C)C(=O)CC=C(C)C)OC1` (stereo partly specified), the Contragestational activity with Cavia porcellus [3] worked out at 50 mg/kg.
Regarding `CC(C)=CCC(=O)C(C)CCC[C@]1(C)OC/C(=C/CO)CC[C@H]1O` (stereo partly specified), in the assay on Cavia porcellus [3], the Contragestational activity stood at 50 mg/kg.
The same measure, in the same setting: with `CC(=O)OC/C=C1\CC[C@@H](OC(C)=O)[C@](C)(CCCC(C)C(O)CC=C(C)C)OC1` (stereo partly specified) the figure was 50 mg/kg.
In the assay on Cavia porcellus [2], `CC(C)CCC(=O)C(C)CCC[C@]1(C)OCC(CCO)CC[C@H]1O` (stereo partly specified) gave a Contragestational activity of over 100 mg/kg.
In the assay on Cavia porcellus [2], `C=C[C@@]12CC[C@@H](O1)[C@](C)(CCCC(C)C(=O)CC=C(C)C)OC2` (stereo partly specified) had a Contragestational activity of over 100 mg/kg.
In the assay with Cavia porcellus [4], `CC(C)=CCC(O)C(C)CCC[C@]1(C)OC/C(=C/CO)CC[C@H]1O` (stereo partly specified) gave a Contragestational activity of 10 mg/kg.
Consider `CC(C)=CCC(O)C(C)CCC[C@]1(C)OC[C@]2(CCO)CC[C@H]1O2` (stereo partly specified), for which the Contragestational activity with Cavia porcellus [3] came to 50 mg/kg.
For the compound `C/C(=C\C(=O)C(C)CCC[C@]1(C)OC[C@]2(CC(=O)O)CC[C@H]1O2)C(C)C` (stereo partly specified), the Contragestational activity with Cavia porcellus [3] was determined as 50 mg/kg.
For the compound `CC(CCC[C@]1(C)OC[C@]2(CC(=O)O)CC[C@H]1O2)C(=O)CC(C)C(C)C` (stereo partly specified), the Contragestational activity with Cavia porcellus [2] was over 100 mg/kg.
Still for that read-out and setting: with `CC(CCC[C@]1(C)OC[C@]2(CC(=O)O)CC[C@H]1O2)C(=O)/C=C/C(C)(C)O` (stereo partly specified) the figure was over 100 mg/kg.
Regarding `C#CC(O)(CC=C(C)C)C(C)CCC[C@]1(C)OC[C@]2(CC(=O)O)CC[C@H]1O2` (stereo partly specified), in the assay on Cavia porcellus [4], the Contragestational activity was found to be 10 mg/kg.
As to `CC(C)=CCC(O)C(C)CCC[C@]1(C)OC[C@]2(CC=O)CC[C@H]1O2` (stereo partly specified), the Contragestational activity with Cavia porcellus [5] is under 10 mg/kg.
Same read-out and setting: with `CC(C)=CCC(=O)C(C)CCC[C@]1(C)OC[C@]2(CC=O)CC[C@H]1O2` (stereo partly specified) the figure was under 10 mg/kg; with `CC(C)CCC(O)C(C)CCC[C@]1(C)OC[C@]2(CC=O)CC[C@H]1O2` (stereo partly specified), under 10 mg/kg.
The compound `CC(C)=CCC(=O)C(C)CCC[C@]1(C)OC[C@]2(CC(=O)O)CC[C@H]1O2` (stereo partly specified) yielded a Contragestational activity with Cavia porcellus [5] of under 10 mg/kg.
Still for that read-out and setting: with `CC(C)=CCC(O)C(C)CCC[C@]1(C)OC[C@]2(CC(=O)O)CC[C@H]1O2` (stereo partly specified) the figure was under 10 mg/kg.
`CC(=O)O[C@@H]1CCC(=O)CO[C@@]1(C)CCCC(C)C(=O)O` (stereo partly specified): the Contragestational activity in the assay on Cavia porcellus [2] is over 100 mg/kg.
In the case of `CC(C)=CCC(=O)C(C)CCC[C@]1(C)OC[C@]2(CCO)CC[C@H]1O2` (stereo partly specified), the Contragestational activity in the assay with Cavia porcellus [5] is under 10 mg/kg.
In the assay with Cavia porcellus [4], `CC(C)CCC(O)C(C)CCC[C@]1(C)OC[C@]2(CCO)CC[C@H]1O2` (stereo partly specified) showed a Contragestational activity of 10 mg/kg.
Compound `C/C(=C\C(=O)C(C)CCC[C@]1(C)OC[C@]2(C(=O)O)CC[C@H]1O2)C(C)C` (stereo partly specified) came in with a Contragestational activity with Cavia porcellus [2] of over 100 mg/kg.
Regarding `CC(C)=CCC(C)(O)C(C)CCC[C@]1(C)OC[C@]2(CC(=O)O)CC[C@H]1O2` (stereo partly specified), the Contragestational activity with Cavia porcellus [5] is under 10 mg/kg.
As to `C/C(=C\C(=O)C(C)CCC[C@]1(C)OC/C(=C/CO)CC[C@H]1O)C(C)C` (stereo partly specified), in the assay with Cavia porcellus [2], the Contragestational activity is over 100 mg/kg.
In the assay on Cavia porcellus [4], `CC(C)=CCC(O)C(C)CCC[C@]1(C)OC[C@]2(C(=O)O)CC[C@H]1O2` (stereo partly specified) registered a Contragestational activity of 10 mg/kg.
The compound `CC(C)CCC(O)C(C)CCC[C@]1(C)OC[C@]2(CC(=O)O)CC[C@H]1O2` (stereo partly specified) had a Contragestational activity in the assay on Cavia porcellus [5] of under 10 mg/kg.
On to `C#CC(O)(CC=C(C)C)C(C)CCC[C@]1(C)OC/C(=C/CO)CC[C@H]1O` (stereo partly specified), for which the Contragestational activity in the assay with Cavia porcellus [2] is over 100 mg/kg.
Consider `CC(C)=CCC(C)(O)C(C)CCC[C@]1(C)OC/C(=C/CO)CC[C@H]1O` (stereo partly specified), for which the Contragestational activity in the assay on Cavia porcellus [4] stood at 10 mg/kg.
As to `C/C(=C\C(O)C(C)CCC[C@]1(C)OC/C(=C/CO)CC[C@H]1O)C(C)C` (stereo partly specified), the Contragestational activity in the assay on Cavia porcellus [2] was over 100 mg/kg.
The same measure, in the same setting: with `CC(CCC[C@]1(C)OC/C(=C/CO)CC[C@H]1O)C(=O)/C=C/C(C)(C)O` (stereo partly specified) the figure was over 100 mg/kg.
Regarding `COC(=O)C[C@@]12CC[C@@H](O1)[C@](C)(CCCC(C)C(O)CC=C(C)C)OC2` (stereo partly specified), the Contragestational activity with Cavia porcellus [5] is under 10 mg/kg.
On to `CC(=O)OC/C=C1\CC[C@@H](O)[C@](C)(CCCC(C)C(=O)CC=C(C)C)OC1` (stereo partly specified), for which the Contragestational activity in the assay with Cavia porcellus [3] was 50 mg/kg.
Regarding `CC(C)CCC(=O)C(C)CCC[C@]1(C)OC[C@]2(CC(=O)O)CC[C@H]1O2` (stereo partly specified), the Contragestational activity in the assay with Cavia porcellus [1] was found to be 25 mg/kg.
As for `CC(=O)O[C@@H]1CC/C(=C\C=O)CO[C@@]1(C)CCCC(C)C(=O)CC=C(C)C` (stereo partly specified), the Contragestational activity in the assay with Cavia porcellus [4] worked out at 10 mg/kg.
Turning to `COC(=O)C[C@@]12CC[C@@H](O1)[C@](C)(CCCC(C)CO)OC2` (stereo partly specified), the Contragestational activity in the assay on Cavia porcellus [2] was over 100 mg/kg.
In the assay on Cavia porcellus [2], `CC(CCC[C@]1(C)OC/C(=C/CO)CC[C@H]1O)C(=O)/C=C/C(C)(C)OO` (stereo partly specified) yielded a Contragestational activity of over 100 mg/kg.
In turn, `CC(=O)OC/C=C1\CC[C@@H](OC(C)=O)[C@](C)(CCCC(C)C(CC=C(C)C)OC(C)=O)OC1` (stereo partly specified) showed a Contragestational activity with Cavia porcellus [1] of 50 mg/kg.
